Source: ChEMBL document CHEMBL2086238, “Identification of ETP-46321, a potent and orally bioavailable PI3K α, δ inhibitor” (Bioorg Med Chem Lett, 2012)

Key:
[1] = molecular target: Dual specificity mitogen-activated protein kinase kinase 1 (Homo sapiens) (UniProt Q02750); assay: Inhibition of MEK1 at 1 uM
[2] = molecular target: Serine/threonine-protein kinase pim-2 (Homo sapiens) (UniProt Q9P1W9); assay: Inhibition of PIM2 at 1 uM
[3] = molecular target: Serine/threonine-protein kinase pim-2 (Homo sapiens) (UniProt Q9P1W9); assay: Inhibition of PIM2 at 5 uM
[4] = molecular target: Casein kinase I isoform alpha (Homo sapiens) (UniProt P48729); assay: Inhibition of CK1alpha1 at 5 uM
[5] = system: Serine/threonine-protein kinase B-raf (Homo sapiens), P15056 [V600E]; assay: Inhibition of BRAF V600E mutant at 5 uM
[6] = molecular target: Tyrosine-protein kinase JAK2 (Homo sapiens) (UniProt O60674); assay: Inhibition of JAK2 at 5 uM
[7] = molecular target: Epidermal growth factor receptor (Homo sapiens) (UniProt P00533); assay: Inhibition of EGFR at 5 uM
[8] = molecular target: Mast/stem cell growth factor receptor Kit (Homo sapiens) (UniProt P10721); assay: Inhibition of KIT at 5 uM
[9] = molecular target: T1, Serine/threonine-protein kinase Sgk1 (Homo sapiens) (UniProt O00141); assay: Inhibition of SGK1 at 5 uM
T1 sequence (whole entry): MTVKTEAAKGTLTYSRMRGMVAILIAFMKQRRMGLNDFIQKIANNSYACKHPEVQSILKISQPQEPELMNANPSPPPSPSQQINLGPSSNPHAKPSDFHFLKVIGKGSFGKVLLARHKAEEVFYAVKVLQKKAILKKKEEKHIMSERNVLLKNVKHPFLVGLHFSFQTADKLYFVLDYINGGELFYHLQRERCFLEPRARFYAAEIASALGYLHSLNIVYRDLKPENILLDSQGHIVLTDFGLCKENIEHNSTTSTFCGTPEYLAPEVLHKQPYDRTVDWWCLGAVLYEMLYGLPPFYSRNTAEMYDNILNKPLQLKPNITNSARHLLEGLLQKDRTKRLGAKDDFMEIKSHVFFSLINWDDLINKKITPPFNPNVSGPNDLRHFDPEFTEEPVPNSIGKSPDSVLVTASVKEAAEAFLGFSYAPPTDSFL

[10] = molecular target: Insulin receptor (Homo sapiens) (UniProt P06213); assay: Inhibition of INSR at 5 uM
[11] = Inhibition of PDGFR at 1 uM
[12] = molecular target: T2, NUAK family SNF1-like kinase 1 (Homo sapiens) (UniProt O60285); assay: Inhibition of ARK5 at 5 uM
T2 sequence (whole entry): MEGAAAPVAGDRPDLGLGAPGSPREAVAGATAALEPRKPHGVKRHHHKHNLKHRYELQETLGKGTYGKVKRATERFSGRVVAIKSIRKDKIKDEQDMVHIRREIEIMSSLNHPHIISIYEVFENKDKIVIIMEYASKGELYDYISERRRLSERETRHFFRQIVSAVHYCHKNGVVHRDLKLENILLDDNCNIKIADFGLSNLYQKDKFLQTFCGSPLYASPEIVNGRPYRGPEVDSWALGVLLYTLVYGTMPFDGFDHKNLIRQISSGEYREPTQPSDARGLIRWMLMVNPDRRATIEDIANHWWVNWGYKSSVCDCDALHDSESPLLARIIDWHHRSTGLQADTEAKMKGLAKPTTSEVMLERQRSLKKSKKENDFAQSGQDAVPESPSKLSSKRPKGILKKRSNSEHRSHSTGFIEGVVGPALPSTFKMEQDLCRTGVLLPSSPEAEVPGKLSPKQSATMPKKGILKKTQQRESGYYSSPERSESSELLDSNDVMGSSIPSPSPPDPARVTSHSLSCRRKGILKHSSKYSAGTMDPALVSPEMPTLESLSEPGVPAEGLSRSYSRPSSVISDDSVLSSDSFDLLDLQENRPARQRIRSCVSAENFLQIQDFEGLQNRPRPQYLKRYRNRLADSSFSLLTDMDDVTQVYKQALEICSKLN

[13] = molecular target: Mitogen-activated protein kinase 8 (Homo sapiens) (UniProt P45983); assay: Inhibition of JNK1 at 5 uM
[14] = molecular target: T3, Serine/threonine-protein kinase 4 (Homo sapiens) (UniProt Q13043); assay: Inhibition of MST1 at 1 uM
T3 sequence (whole entry): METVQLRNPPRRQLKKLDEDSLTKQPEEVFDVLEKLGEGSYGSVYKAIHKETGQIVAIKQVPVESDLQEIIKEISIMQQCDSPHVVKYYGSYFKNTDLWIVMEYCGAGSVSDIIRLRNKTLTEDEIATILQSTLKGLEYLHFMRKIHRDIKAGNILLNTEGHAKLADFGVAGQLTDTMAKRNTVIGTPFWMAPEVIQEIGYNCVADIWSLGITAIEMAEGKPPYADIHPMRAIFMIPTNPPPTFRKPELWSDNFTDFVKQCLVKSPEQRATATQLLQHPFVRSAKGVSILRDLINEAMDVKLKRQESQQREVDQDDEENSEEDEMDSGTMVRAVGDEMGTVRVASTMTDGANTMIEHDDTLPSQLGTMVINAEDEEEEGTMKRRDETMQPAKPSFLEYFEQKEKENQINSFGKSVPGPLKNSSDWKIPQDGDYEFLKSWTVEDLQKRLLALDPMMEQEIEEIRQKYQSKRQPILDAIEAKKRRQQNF

[15] = molecular target: Dual specificity mitogen-activated protein kinase kinase 1 (Homo sapiens) (UniProt Q02750); assay: Inhibition of MEK1 at 5 uM
[16] = molecular target: T2, NUAK family SNF1-like kinase 1 (Homo sapiens); assay: Inhibition of ARK5 at 1 uM
[17] = molecular target: CYP2C9 (Homo sapiens, UniProt P11712); assay: Inhibition of CYP2C9 at 10 uM; type: ADME
[18] = molecular target: CYP2C19 (Homo sapiens, UniProt P33261); assay: Inhibition of CYP2C19 at 10 uM; type: ADME
[19] = molecular target: T4, CYP1A2 (Homo sapiens, UniProt P05177); assay: Inhibition of CYP1A2 at 10 uM; type: ADME
T4 sequence (P05177 whole entry): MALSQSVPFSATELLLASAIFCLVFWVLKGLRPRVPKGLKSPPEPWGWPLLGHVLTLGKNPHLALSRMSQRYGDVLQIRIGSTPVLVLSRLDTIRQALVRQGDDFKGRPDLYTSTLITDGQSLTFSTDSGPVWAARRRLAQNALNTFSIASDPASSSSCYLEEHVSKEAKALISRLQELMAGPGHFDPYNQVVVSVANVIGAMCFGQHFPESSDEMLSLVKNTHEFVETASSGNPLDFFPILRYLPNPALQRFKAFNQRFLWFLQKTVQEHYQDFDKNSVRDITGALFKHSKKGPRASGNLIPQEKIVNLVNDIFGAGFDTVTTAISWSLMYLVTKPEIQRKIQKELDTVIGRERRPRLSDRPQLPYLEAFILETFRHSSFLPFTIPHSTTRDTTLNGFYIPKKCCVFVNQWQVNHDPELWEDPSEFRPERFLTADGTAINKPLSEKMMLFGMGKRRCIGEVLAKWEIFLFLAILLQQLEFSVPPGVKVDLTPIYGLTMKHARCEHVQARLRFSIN

Chain of Tyrosine-protein kinase JAK2 (Homo sapiens) (O60674 whole entry): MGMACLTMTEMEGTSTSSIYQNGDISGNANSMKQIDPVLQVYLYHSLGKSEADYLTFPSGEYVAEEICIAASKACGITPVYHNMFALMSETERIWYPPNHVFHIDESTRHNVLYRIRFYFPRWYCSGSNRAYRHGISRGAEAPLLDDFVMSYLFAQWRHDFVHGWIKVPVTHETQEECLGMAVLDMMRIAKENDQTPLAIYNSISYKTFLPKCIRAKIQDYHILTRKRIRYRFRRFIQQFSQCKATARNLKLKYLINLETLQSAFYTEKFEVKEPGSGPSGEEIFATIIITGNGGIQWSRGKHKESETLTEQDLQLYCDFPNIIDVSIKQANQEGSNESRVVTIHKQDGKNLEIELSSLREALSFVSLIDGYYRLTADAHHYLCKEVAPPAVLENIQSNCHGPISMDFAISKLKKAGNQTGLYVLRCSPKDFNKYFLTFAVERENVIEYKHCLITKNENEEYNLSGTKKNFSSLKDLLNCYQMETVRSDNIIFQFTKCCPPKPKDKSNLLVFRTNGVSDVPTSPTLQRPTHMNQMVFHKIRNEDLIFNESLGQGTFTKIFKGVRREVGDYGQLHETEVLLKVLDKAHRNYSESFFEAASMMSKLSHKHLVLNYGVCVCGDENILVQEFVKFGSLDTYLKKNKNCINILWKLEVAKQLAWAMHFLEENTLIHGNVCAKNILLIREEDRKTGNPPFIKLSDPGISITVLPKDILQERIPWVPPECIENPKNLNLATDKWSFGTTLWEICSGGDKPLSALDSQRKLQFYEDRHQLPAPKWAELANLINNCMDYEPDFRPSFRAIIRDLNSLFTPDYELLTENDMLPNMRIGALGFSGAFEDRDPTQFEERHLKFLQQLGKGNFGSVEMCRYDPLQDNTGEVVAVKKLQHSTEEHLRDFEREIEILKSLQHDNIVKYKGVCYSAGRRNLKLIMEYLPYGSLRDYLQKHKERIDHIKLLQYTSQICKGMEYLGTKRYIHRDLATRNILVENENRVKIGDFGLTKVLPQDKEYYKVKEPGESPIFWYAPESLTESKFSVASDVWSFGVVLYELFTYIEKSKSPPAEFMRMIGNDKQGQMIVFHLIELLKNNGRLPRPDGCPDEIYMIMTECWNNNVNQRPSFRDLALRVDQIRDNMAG
Chain of Mitogen-activated protein kinase 8 (Homo sapiens) (P45983 whole entry): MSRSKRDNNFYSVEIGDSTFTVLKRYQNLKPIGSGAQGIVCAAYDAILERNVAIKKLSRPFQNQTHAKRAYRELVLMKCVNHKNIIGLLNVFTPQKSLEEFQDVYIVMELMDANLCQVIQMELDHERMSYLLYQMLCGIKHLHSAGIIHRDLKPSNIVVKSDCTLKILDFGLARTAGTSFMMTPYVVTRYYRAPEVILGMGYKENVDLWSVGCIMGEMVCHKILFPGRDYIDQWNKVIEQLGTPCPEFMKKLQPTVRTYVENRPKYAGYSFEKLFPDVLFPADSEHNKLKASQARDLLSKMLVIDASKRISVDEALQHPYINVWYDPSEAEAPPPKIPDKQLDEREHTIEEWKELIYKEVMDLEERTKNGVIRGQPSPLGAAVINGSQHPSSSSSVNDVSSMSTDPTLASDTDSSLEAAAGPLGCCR
Chain of Dual specificity mitogen-activated protein kinase kinase 1 (Homo sapiens) (Q02750 whole entry): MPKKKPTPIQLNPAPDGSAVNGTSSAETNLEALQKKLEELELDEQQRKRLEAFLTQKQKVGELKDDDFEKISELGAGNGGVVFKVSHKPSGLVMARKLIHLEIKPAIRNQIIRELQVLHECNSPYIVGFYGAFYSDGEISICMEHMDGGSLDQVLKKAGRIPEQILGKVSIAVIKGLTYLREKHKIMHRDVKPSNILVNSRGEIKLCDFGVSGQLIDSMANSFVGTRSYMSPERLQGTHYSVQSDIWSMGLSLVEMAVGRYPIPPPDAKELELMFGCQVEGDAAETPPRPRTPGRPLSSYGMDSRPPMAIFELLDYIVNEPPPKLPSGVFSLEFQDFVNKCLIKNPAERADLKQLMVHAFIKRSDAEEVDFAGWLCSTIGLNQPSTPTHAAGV
Chain of Epidermal growth factor receptor (Homo sapiens) (P00533 whole entry): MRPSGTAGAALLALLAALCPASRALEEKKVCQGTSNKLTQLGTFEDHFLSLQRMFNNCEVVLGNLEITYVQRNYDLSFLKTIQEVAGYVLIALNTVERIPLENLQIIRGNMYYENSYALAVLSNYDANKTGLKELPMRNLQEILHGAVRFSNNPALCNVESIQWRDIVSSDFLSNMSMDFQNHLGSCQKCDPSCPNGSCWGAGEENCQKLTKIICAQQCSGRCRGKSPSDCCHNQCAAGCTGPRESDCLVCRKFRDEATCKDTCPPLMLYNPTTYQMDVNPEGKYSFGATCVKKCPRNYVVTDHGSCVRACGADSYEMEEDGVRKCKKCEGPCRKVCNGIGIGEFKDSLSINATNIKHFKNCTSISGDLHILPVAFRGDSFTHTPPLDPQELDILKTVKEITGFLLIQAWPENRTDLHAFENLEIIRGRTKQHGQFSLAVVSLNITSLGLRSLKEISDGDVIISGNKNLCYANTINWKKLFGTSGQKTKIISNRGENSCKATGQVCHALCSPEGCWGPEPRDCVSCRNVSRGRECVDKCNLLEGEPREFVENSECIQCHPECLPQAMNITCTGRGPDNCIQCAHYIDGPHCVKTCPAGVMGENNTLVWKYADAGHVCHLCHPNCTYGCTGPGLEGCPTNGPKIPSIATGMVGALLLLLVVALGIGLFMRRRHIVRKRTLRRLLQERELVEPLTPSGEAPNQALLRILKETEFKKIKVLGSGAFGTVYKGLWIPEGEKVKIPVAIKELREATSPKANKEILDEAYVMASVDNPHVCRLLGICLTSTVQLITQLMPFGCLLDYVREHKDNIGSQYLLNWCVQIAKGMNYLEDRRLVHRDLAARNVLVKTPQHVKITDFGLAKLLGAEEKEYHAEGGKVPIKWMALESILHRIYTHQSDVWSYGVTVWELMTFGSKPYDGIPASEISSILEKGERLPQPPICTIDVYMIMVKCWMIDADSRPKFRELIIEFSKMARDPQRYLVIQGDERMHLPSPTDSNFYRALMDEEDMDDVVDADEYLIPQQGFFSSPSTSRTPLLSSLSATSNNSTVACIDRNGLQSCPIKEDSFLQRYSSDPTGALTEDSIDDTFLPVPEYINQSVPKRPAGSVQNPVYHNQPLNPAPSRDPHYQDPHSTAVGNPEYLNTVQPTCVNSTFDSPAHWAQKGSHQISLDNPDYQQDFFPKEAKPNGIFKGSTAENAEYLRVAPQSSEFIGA
Chain of Serine/threonine-protein kinase B-raf (Homo sapiens), P15056 [V600E] (P15056 whole entry V600E): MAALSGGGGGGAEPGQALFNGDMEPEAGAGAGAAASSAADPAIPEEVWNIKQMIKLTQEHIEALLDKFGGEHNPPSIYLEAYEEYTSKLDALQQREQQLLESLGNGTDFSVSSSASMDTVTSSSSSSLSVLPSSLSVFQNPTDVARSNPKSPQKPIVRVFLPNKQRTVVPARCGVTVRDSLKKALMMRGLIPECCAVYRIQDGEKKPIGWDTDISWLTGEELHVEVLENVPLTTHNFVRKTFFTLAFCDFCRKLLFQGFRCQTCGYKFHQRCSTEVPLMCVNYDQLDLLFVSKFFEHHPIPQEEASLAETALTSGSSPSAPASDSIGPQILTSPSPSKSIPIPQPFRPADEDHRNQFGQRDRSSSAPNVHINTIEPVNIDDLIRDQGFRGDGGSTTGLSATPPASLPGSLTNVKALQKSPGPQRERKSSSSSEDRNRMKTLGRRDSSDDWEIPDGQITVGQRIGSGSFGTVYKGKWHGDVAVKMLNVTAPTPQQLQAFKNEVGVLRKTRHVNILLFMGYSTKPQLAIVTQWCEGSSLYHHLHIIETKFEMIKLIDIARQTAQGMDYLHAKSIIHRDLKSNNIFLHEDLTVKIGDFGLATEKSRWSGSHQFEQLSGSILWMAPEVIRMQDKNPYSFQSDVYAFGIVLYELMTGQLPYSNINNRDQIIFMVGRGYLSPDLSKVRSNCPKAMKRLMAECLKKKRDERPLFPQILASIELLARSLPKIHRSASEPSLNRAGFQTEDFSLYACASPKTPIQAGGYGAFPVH
Chain of Casein kinase I isoform alpha (Homo sapiens) (P48729 2-337 limits assumed): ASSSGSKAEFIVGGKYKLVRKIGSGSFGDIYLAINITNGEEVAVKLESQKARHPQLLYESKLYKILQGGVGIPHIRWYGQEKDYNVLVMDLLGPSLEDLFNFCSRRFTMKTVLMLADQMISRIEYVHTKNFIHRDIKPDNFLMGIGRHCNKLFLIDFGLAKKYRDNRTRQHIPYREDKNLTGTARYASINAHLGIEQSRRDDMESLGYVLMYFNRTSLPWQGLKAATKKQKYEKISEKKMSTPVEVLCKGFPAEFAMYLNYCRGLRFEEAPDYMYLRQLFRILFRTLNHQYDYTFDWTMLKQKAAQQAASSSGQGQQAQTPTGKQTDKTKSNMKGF
Chain of CYP2C19 (P33261 whole entry): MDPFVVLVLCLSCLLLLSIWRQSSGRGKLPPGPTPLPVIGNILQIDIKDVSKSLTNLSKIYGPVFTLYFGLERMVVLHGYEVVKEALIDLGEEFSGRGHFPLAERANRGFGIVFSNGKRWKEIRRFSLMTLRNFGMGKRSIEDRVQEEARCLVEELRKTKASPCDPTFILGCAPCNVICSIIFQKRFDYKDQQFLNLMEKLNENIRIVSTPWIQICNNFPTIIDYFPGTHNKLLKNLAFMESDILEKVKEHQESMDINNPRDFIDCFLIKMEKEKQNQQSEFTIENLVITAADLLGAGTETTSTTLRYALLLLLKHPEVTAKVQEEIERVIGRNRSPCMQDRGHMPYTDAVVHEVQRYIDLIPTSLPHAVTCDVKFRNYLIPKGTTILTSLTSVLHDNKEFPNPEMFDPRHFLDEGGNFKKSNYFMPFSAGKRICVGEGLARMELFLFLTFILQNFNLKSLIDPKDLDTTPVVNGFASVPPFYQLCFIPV

Cc1nc(N)ncc1-c1cn2cc(CN3CCN(S(C)(=O)=O)CC3)nc2c(N2CCOCC2)n1
< 30%: inhibition [1] | inhibition [2] | inhibition [3] | inhibition [4] | inhibition [5] | inhibition [6] | inhibition [7] | inhibition [8] | inhibition [9] | inhibition [10] | inhibition [11] | inhibition [12] | inhibition [13] | inhibition [14] | inhibition [15] | inhibition [16]

Cc1c(CN2CCN(S(C)(=O)=O)CC2)nc2c(N3CCOCC3)nc(-c3cnc(N)nc3)cn12
< 30%: inhibition [1] | inhibition [2] | inhibition [3] | inhibition [4] | inhibition [5] | inhibition at 10 µM [17] | inhibition [6] | inhibition [7] | inhibition [8] | inhibition [9] | inhibition [10] | inhibition [11] | inhibition at 10 µM [18] | inhibition [12] | inhibition [13] | inhibition [14] | inhibition [15] | inhibition at 10 µM [19] | inhibition [16]

CS(=O)(=O)N1CCN(Cc2cn3cc(-c4cnc(N)nc4)nc(N4CCOCC4)c3n2)CC1
< 30%: inhibition [1] | inhibition [2] | inhibition [3] | inhibition [4] | inhibition [5] | inhibition at 10 µM [17] | inhibition [6] | inhibition [7] | inhibition [8] | inhibition [9] | inhibition [10] | inhibition [11] | inhibition at 10 µM [18] | inhibition [12] | inhibition [13] | inhibition [14] | inhibition [15] | inhibition at 10 µM [19] | inhibition [16]

CS(=O)(=O)N1CCN(Cc2cn3c(Cl)c(-c4cnc(N)nc4)nc(N4CCOCC4)c3n2)CC1
< 30%: inhibition [1] | inhibition [2] | inhibition [3] | inhibition [4] | inhibition [5] | inhibition at 10 µM [17] | inhibition [6] | inhibition [7] | inhibition [8] | inhibition [9] | inhibition [10] | inhibition [11] | inhibition at 10 µM [18] | inhibition [12] | inhibition [13] | inhibition [14] | inhibition [15] | inhibition at 10 µM [19] | inhibition [16]

CS(=O)(=O)N1CCN(Cc2nc3c(N4CCOCC4)nc(-c4cnc(N)nc4)cn3c2Br)CC1
< 30%: inhibition [1] | inhibition [2] | inhibition [3] | inhibition [4] | inhibition [5] | inhibition at 10 µM [17] | inhibition [6] | inhibition [7] | inhibition [8] | inhibition [9] | inhibition [10] | inhibition [11] | inhibition at 10 µM [18] | inhibition [12] | inhibition [13] | inhibition [14] | inhibition [15] | inhibition at 10 µM [19] | inhibition [16]
